Columns and labels:
UCP1 knockout mice = assay: Food intake on refeeding of fasted Ucp1 knockout mice; type: in vivo, Mus musculus; conditions: fasted 18 h, 5 nmol i.p., 4 hours of refeeding, compared to wildtype (FIG. 8)
Description: For the measurement of food intake, a feeding-drinking-activity (FDA) device was used (TSE Systems, Bad Homburg/Germany). During the measurement mice were single-housed in type-III cages. Mice were habituated to the new cage environment and received every morning at 10 a.m. a single daily intraperitoneal (i.p.) PBS-injection for four days ahead of the experiment start. The body weight of the mice was measured every day. On day four day of habituation the food was removed from the cages at 5 p.m., and the mice were food deprived over night with ad libitum access to water. On the next morning, mice were i.p. injected with either PBS as control or secretin (rat, Tocris, Art Nr 1919). The latter was given in different doses. Subsequently the mice were refed ad libitum while monitoring food intake during the following 72 hours. […] Food intake was calculated from the decrease in feeder weight. The results were exported into a spreadsheet calculation table (Excel, Microsoft) and analyzed with a software package for statistics and graphics (GraphPad Prism 4.0, GraphPad Software, San Diego, USA).
Next to thermogenesis, brown fat has been proposed to function in the thermoregulatory control of feeding. […] Just before refeeding, mice were intra-peritoneally injected with 5 nmol secretin solved in PBS, or PBS as the vehicle control, and food intake was monitored for the following three days.

[1] = system: primary brown adipocytes from UCP1 knockout mice; assay: Microplate respirometry (oxygen consumption rate) in primary brown adipocytes from UCP1 knockout mice; type: cell-based, Mus musculus
Description: For culturing primary adipocytes male 129S1/SvImJ mice ([…] or UCP1-KO mice and wildtype littermates) at the age of 5-6 weeks were used for the dissection of inguinal and epidydimal white adipose tissue and interscapular brown adipose tissue depots. The tissue was carefully minced and treated with collagenase for 45 min at 37° C. The homogenate was filtered through a 250 μm nylon mesh and centrifuged at 500 g to collect the stromal vascular fraction (SVF). The SVF cell pellet was rinsed and seeded into XF96 V3-PS cell culture microplate (Seahorse Bioscience). After reaching confluency, induction medium containing 10% fetal bovine serum (FBS), 0.5 mM isobutylmethylxanthine, 125 nM indomethacin, 1 mM dexamethasone, 850 nM insulin and 1 nM T3 was added. After 2 days of induction, cells were maintained in differentiation media (10% FBS, 850 nM insulin and 1 nM T3). Medium was changed every two days. Respiration was measured on day 7 of differentiation. For determination of mRNA levels cells were stimulated at the 7th day of differentiation for 6 hours with secretin (rat, Tocris, Art Nr 1919) or isoproterenol (Sigma-Aldrich, Art Nr. 16504-100MG) and harvested subsequently. Oxygen consumption rate (OCR) was measured at 37° C. using a microplate respirometer (XF96 extracellular flux analyzer, Seahorse Bioscience). At day 7, the differentiation medium was replaced with prewarmed, unbuffered assay medium (DMEM basal medium supplemented with 25 mM glucose, 2 mM sodium pyruvate, 31 mM NaCl, 2 mM GlutaMax and 15 mg/l phenol red, pH 7.4) containing 2% of essentially fatty acid free bovine serum albumin (BSA), and incubated at 37° C. in a room air incubator for 1 h. Basal respiration was measured in untreated cells. […] Maximum respiratory capacity was assessed after FCCP (Sigma-Aldrich) addition (1 μM). […] Oxygen consumption rates were calculated using the Seahorse XF-96 software. […] For induction of OCR by isoproterenol, secretin or FCCP the highest values measured after addition of the respective molecule was used. The “OCR in % of basal OCR” and “OCR in % of FCCP OCR” were calculated as follows: Method: To test whether SCT can activate thermogenesis in brown adipocytes, we measured UCP1-mediated uncoupled respiration in cultured adherent intact primary brown adipocytes, according to a protocol recently established in our lab (Li Y, Fromme T, Schweizer S, Schöttl T, Klingenspor M. EMBO Rep. 2014 October; 15(10):1069-76. doi: 10.15252/embr.201438775; […]. Meaningful respirometric measurements of UCP1-mediated thermogenesis. Biochimie. 2017 March; 134:56-61. doi: 10.1016/j.biochi.2016.12.005.). The cellular oxygen consumption rate (OCR) of primary adipocytes was determined using an XF96 Extracellular Flux Analyzer (Seahorse Bioscience). […]

## secretin
UCP1 knockout mice
  refeeding food intake in Ucp1 knockout mice: did not inhibit refeeding
[1]; 129/S1 background, FIG. 3
  induction of respiration in cells from UCP1 knockout mice: lacking
[1]; SCT 10 nM, ISO 500 nM (FIG. 10B)
  response of respiration in UCP1 knockout brown adipocytes: did not respond
